The numbers were not newly measured in US20080305186A1, “Method and Composition for the Treatment of Cardiac Hypertrophy” (BOARD OF REGENTS, THE UNIVERSITY OF TEXAS SYSTEM, priority 2007, published 2008), which cites them from elsewhere.

The subject of data set [1] is isoproterenol-, angiotensin II- and aortic banding induced cardiac hypertrophy. The settings on record: cited from earlier work.
The next data set has as its system Histone Deacetylase. The settings on record: cited from earlier work.

In the case of `CCCC(CCC)C(=O)O` [valproic acid], in data set [1], the “attenuation of cardiac hypertrophy” value is given as “attenuate”. Also, in the data set with Histone Deacetylase, the “inhibition of Histone Deacetylase (HDAC)” value is recorded as “inhibit HDAC”.
